According to publication PMC12064818, “A general assay platform to study protein pharmacology using ligand-dependent structural dynamics” (Nature Communications, 2025):
Like-named read-outs stand apart in the source and are kept apart here.

Experiments:
P. pyralis FLuc = P. pyralis FLuc (Photinus pyralis, UniProt P08659); test: FLuc enzymatic luminescence assay, P. pyralis FLuc; format: biochemical; conditions: FLuc enzymatic assay; for IC50: read-out: IC50 or SDR50 (mM) FLuc E
Outline: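 Runs with and without 10 µM ATP: compounds were pre-incubated with FLuc (1–10 nM, PBS pH 7.4) at ambient temperature, light-protected, for 30–60 min. Luminescence was imaged 5 min after adding 10 µM D-luciferin (final). Inhibition was scaled between DMSO neutral and no-enzyme controls.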

[1] = biological target: FLuc-C-HiBiT (firefly luciferase) (Photinus pyralis, UniProt P08659, form not given/L550V); test: SDR assay, FLuc-C-HiBiT; conditions: SDR max. response, clade S
Chain of FLuc-C-HiBiT (firefly luciferase) (P08659 2-550 L550V, form open): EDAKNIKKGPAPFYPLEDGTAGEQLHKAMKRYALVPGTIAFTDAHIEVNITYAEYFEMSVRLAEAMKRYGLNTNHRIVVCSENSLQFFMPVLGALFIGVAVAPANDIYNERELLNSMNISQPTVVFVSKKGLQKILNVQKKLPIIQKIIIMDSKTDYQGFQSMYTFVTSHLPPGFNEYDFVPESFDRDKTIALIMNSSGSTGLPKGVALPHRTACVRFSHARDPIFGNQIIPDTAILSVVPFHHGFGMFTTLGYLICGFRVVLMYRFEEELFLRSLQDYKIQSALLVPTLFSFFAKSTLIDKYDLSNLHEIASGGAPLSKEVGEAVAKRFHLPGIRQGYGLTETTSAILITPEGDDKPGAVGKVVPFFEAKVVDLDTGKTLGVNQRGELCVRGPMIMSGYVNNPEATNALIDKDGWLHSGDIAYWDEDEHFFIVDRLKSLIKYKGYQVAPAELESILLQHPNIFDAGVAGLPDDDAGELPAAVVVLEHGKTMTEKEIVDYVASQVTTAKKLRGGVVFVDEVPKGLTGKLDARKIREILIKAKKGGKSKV

NLuc = biological target: T1, NLuc (Oplophorus gracilirostris, UniProt Q9GV45, A31E/A60N/A81I/F95D/I117V/K70R/L54V/L99Q/M102K/N193R/P142E/Q151K/Q38R/Q45L/V71I/Y165I); format: biochemical; conditions: - ATP
T1 construct: His tag (inferred from IMAC purification); made in house; host or cells: E. coli
T1 sequence (Q9GV45 other isoform, or with tags, fused parts or gaps with the stated changes): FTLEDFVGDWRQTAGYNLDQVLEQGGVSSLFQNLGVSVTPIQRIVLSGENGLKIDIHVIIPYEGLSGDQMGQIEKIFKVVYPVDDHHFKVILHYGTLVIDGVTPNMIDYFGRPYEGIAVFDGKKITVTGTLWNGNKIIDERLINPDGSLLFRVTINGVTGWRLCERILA
Outline: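 Luminescence was read 10 min after Nano-Glo reagent addition. Enzyme was 1 nM NLuc in PBS/0.05% IGEPAL buffer, with or without ATP.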

[2] = biological target: FLuc-C-NLuc (firefly luciferase) (Photinus pyralis, UniProt P08659, form not given/L550V); test: SDR assay, FLuc-C-NLuc; conditions: - ATP
Chain of FLuc-C-NLuc (firefly luciferase) (P08659 2-550 L550V, form open): as the sequence (P08659 2-550 L550V, form open) above

Chain of P. pyralis FLuc (P08659 whole entry): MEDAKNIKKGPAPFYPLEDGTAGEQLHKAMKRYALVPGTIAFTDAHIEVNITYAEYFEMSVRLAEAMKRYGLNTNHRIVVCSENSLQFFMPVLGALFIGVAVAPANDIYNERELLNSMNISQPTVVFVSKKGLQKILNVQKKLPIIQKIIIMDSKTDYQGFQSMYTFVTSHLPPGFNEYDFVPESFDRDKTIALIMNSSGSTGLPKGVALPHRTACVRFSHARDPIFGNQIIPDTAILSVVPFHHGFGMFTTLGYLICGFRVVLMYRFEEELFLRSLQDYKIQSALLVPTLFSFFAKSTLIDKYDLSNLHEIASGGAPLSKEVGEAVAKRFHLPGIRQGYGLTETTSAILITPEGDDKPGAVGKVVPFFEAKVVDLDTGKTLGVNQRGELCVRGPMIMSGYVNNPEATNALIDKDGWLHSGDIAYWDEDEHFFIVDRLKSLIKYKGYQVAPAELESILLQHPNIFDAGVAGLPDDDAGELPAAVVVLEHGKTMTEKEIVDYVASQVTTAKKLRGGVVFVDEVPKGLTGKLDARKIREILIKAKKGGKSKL

| Structure (SMILES) | pIC50 or pSDR50 FLuc E (P. pyralis FLuc) | Efficacy (%) FLuc E (P. pyralis FLuc; Clade S follow-up) [%] | IC50 (P. pyralis FLuc) [mM] | % Activity (max response, + ATP) [1] [%] | % Activity (max response, - ATP) [1] [%] | Efficacy (%) NLuc (- ATP) (NLuc) [%] | Efficacy (%) FLuc-C-NLuc SDR (-ATP) [2] [%] | pIC50 or pSDR50 FLuc E (P. pyralis FLuc; Clade S follow-up) | IC50 (P. pyralis FLuc; Clade S follow-up) [mM] |
| --- | --- | --- | --- | --- | --- | --- | --- | --- | --- |
| O=C(NC1CC1)C1CCN(C(=O)c2ncn3c2COC(c2ccc(F)cc2)C3)CC1 (centres unmarked) [NCGC00449806-01] | 4.91 | -31.66 | 0.0124 | 47.67 | 0.00 | 0.00 | 0.00 | – | – |
| Cc1ccc(C2Cn3cnc(C(=O)N4CCC(C(=O)NCc5cccc(Cl)c5)CC4)c3CO2)cc1 (centres unmarked) [NCGC00449892-01] | – | -30.33 | – | 61.41 | 14.19 | 0.00 | 0.00 | 4.91 | 0.0124 |
| O=C(NCc1ccccc1F)C1CCN(C(=O)c2ncn3c2COC(c2ccc(Cl)cc2)C3)CC1 (centres unmarked) [NCGC00449851-01] | – | -40.26 | – | 18.50 | 0.00 | 0.00 | 0.00 | 4.91 | 0.0124 |
| Cc1ccc(C2Cn3cnc(C(=O)N4CCC(C(=O)NCCc5ccccc5)CC4)c3CO2)cc1 (centres unmarked) [NCGC00449896-01] | – | -32.41 | – | 46.98 | 0.00 | 10.33 | 0.00 | 4.91 | 0.0124 |
| Cc1ccc(CNC(=O)C2CCN(C(=O)c3ncn4c3COC(c3ccccc3)C4)CC2)cc1 (centres unmarked) [NCGC00449774-01] | 5.01 | -84.01 | 0.00988 | 316.62 | 0.00 | 0.00 | 0.00 | – | – |
| O=C(NCc1ccccc1)C1CCN(C(=O)c2ncn3c2COC(c2ccccc2)C3)CC1 (centres unmarked) [NCGC00449773-01] | 5.56 | -92.80 | 0.00278 | 344.70 | 0.00 | 0.00 | 0.00 | – | – |
| COc1ccc(C2Cn3cnc(C(=O)N4CCC(C(=O)NCC5CCCCC5)CC4)c3CO2)cc1 (centres unmarked) [NCGC00449872-01] | – | -14.52 | – | 0.00 | 0.00 | 0.00 | 0.00 | – | – |
| O=C(NC1CCCCC1)C1CCN(C(=O)c2ncn3c2COC(c2ccc(F)cc2)C3)CC1 (centres unmarked) [NCGC00449807-01] | 4.96 | -25.30 | 0.0111 | 42.77 | 0.00 | 0.00 | 0.00 | – | – |
| O=C(Nc1ccc(F)c(F)c1)C1CCN(C(=O)c2ncn3c2COC(c2ccc(F)cc2)C3)CC1 (centres unmarked) [NCGC00449940-01] | – | -73.07 | – | 125.80 | 0.00 | 0.00 | 0.00 | 4.96 | 0.0111 |
| O=C(NCc1cccc(F)c1)C1CCN(C(=O)c2ncn3c2COC(c2ccccc2)C3)CC1 (centres unmarked) [NCGC00449803-01] | 5.11 | -83.73 | 0.00784 | 254.28 | 0.00 | 0.00 | 0.00 | – | – |
